Values after ≈ are worked out from the molar mass of the structure shown.

The nature of data set [1]: Solubility of catalysts screened in methylene chloride (dichloromethane). Format: physicochemical. An excerpt:
In order to explore the effects of solvent polarity, the solubility of certain catalysts in methylene chloride was screened. Disclosed catalysts typically have a solubility of at least 10 milligrams/milliliter in dichloromethane, and typically at least 50 milligrams/milliliter in dichloromethane.
The absence of a significant non-polar region to the molecule may be the origin of this poor solubility. […] Sulfonamides are ideal choices for proline mimetics as their pKa has been documented to nicely match that of proline.
Ester-based catalysts according to the present disclosure also have markedly better solubilities than previously known compounds.

The nature of data set [2]: Solubility of catalysts under the intramolecular Michael addition conditions. Format: physicochemical. The note with it: chlorinated reaction solvent, incl. lower temperatures; compared with tetrazole 11 and sulfonamides 12-14. The text has this: Proline sulfonamides were tried next as potential organocatalysts. While these ligands have shown promise in certain organocatalyzed reactions, they previously have proven problematic in facilitating Michael addition processes. Proline sulfonamides performed well, providing improved enantiomeric excess (e.e.) at room temperature (Entries 6-8). […] This sulfonamide 15 is readily accessible from the commercially available para-dodecylsulfonylchloride (16) and Cbz-protected proline 18 in 3 steps (Scheme 16).

`CCCCCCCCCCCCc1ccc(S(=O)(=O)NC(=O)C2CCCN2)cc1` (centres unmarked) [Sulfonamide 15, N-(p-dodecylphenylsulfonyl)-2-Pyrrolidinecarboxamide] had a solubility in dichloromethane in data set [1] of 300 mg/mL (≈ 710 mM). Also, in data set [2], the “solubility (in words)” value is “greatly improved solubility properties”.

The values above are taken from patent US8399684B2, “Sulfonamide-based organocatalysts and method for their use” (State of Oregon acting by and through the State Board of …, priority 2007, dated 2013).
